What all share (type): in vivo, dog
What all share (conditions): Konzett data

One test concerns 5-HT. As to the kind of experiment: Konzett bronchodilator assay, 5-HT.
In another test the test system is Hist. As to the kind of experiment: Konzett bronchodilator assay, Hist.
The test system of another test is Ach. Kind of test: Konzett bronchodilator assay, Ach.

Molecules are shown by their SMILES.

Take `CCCCCC(C)(O)/C=C/C1C(O)CC(=O)C1C/C=C\CCCCO` (racemic) [dl-1,11,15-trihydroxymethyl-9-oxo-15-methyl-5-cis-13-trans prostadiene]: the “5-HT (ED50 g/kg)” value in the test on 5-HT worked out at 0.0083 g/kg. In addition, the “Hist (ED50 g/kg)” value in the test with Hist stood at 0.00075 g/kg. Further, in the test with Ach, the “Ach (ED50 g/kg)” value stood at 0.0043 g/kg.

The values above are taken from patent US4288630A, “1-Hydroxymethyl-11,15-dihydroxy-prosten-1-ol-derivatives” (American Cyanamid Company, priority 1980, dated 1981).
